Experimental findings from US9162992B2, “Compounds and compositions for treatment of breathing control disorders or diseases” (GALLEON PHARMACEUTICALS, INC., priority 2010, dated 2015) are described below.

The test system of the test is spontaneously breathing rats. Put plainly: Minute ventilation (MV) and cardiovascular parameters in naive rats. In kind it is in vivo, rat. More on the design: unit not given here. How it is done:
All surgical procedures were performed under anesthesia induced by 2% isoflurane in compressed medical grade air. With rats in supine position, the right femoral vein was catheterized using polyethylene tubing (PE-50). This catheter was used for fluid and drug administration. Simultaneously, the right femoral artery was also catheterized for monitoring blood pressure and heart rate. In order to measure the respiratory parameters in spontaneously breathing rats, trachea was intubated using 13 gauge tracheal tube (2.5 mm ID, Instech Solomon, Pa.).
After establishing a stable base-line at 1.5% isoflurane, compounds (typically at a dose of 1 mpk) were administered IV, and ventilatory parameters were generated from spontaneously breathing rats, along with cardiovascular output (mean arterial pressure (MAP) and heart rate). Maximum peak minute ventilatory (MV) responses (MPR), along with changes in minute ventilation versus baseline (AMV) were obtained as shown in the tables below.

Setting [1] is: Table 8, 1 mpk, 20% HPβCD, pH 4.
Setting [2] is: Table 8, 1 mpk, 20% HPβCD, pH 6.
Setting [3] is: Table 8, 1 mpk, 20% HPβCD, pH 4.5.
The mark [4] stands for this setting: 1 mpk IV, 20% HPβCD, pH not given.

Molecules are shown by their SMILES.

Turning to `CCCNc1nc(NCCC)c2cc[nH]c2n1`, for the setting “1 mpk IV, 20% HPβCD, pH 4-6”, the “MV MPR” value was 336 and the “MV ΔMV” value is 164.
As for `C=CCNc1nc(N2CCC(c3nc(NCCC)nc(NCCC)n3)CC2)c2ccn(C)c2n1` [6-(1-(2-(allylamino)-7-methyl-7H-pyrrolo[2,3-d]pyrimidin-4-yl)piperidin-4-yl)-N^2,N^4-di-n-propyl-1,3,5-triazine-2,4-diamine], under “1 mpk IV, 20% HPβCD, pH 5”, the “MV MPR” value worked out at 154 and the “MV ΔMV” value was 60.
Turning to `CCCNc1nc(N(C)N(C)C)c2ccn(C)c2n1` [7-methyl-N-n-propyl-4-(1,2,2-trimethylhydrazinyl)-7H-pyrrolo[2,3-d]pyrimidin-2-amine], the “MV MPR” value is listed as 167 (1 mpk IV, 15/65/20, pH 5) and 175 (1 mpk IV, 20% HPβCD, pH 4). The “MV ΔMV” value (1 mpk IV, 15/65/20, pH 5) was found to be 89 and the “MV ΔMV” value (1 mpk IV, 20% HPβCD, pH 4) was 83.
Regarding `CC(C)CNc1nc(NCC(C)C)nc(N2C3CCC2CC(=O)C3)n1` [(1,5)-8-(4,6-bis(isobutylamino)-1,3,5-triazin-2-yl)-8-azabicyclo[3.2.1]octan-3-one], for the setting “1 mpk IV, 20% HPβCD, pH 5”, the “MV MPR” value was 237 and the “MV ΔMV” value was 137.
On the same counts, the results for `CCCNc1nc(NCCC)nc(N2C3CCC2CC(=O)C3)n1` [(1,5)-8-(4,6-bis(n-propylamino)-1,3,5-triazin-2-yl)-8-azabicyclo[3.2.1]octan-3-one] are 213 and 98.
Consider `CCCNc1nc2c(c(N3CCC(O)CC3)n1)CCN2C` [CLII, 2-(n-Propyl)amino-4-(4-hydroxypiperidin-1-yl)-7-methyl-pyrrolidino[2,3-d]pyrimidine], for which, where the note is “1 mpk IV, 20% HPβCD, pH 4”, the “MV MPR” value is listed as 49 and the “MV ΔMV” value is 0.33.
On the same counts, the results for `CCCNc1nc2c(c(N3C4CCC3CC(O)C4)n1)CCN2C` (stereo not shown) [CLV, 8-(7-methyl-2-(n-propylamino)-pyrrolidino[2,3-d]pyrimidin-4-yl)-8-azabicyclo[3.2.1]octan-3-ol] are 170 and 57.
As to `C=CCNc1nc(NOC)c2ccn(C)c2n1` [CLX, N-(2-(Propen-2-yl)amino-7-methyl-pyrrolo[2,3d]pyrimidin-4-yl)-O-methyl-hydroxylamine], where the note is “1 mpk IV, 20% HPβCD, pH 5”, the “MV MPR” value came out at 182 and the “MV ΔMV” value was found to be 103.
In the case of `COCCCNc1nc(NCCCOC)nc(N(C)OC)n1` [CXIII], under setting [1], the “MV DMV” value came out at 46 and the “MV MPR” value was determined as 167.1.
As for `CCCNc1nc(N(C)OC)c2cc[nH]c2n1` [CXLI, N-(2-Propylamino-7H-pyrrolo[2,3d]pyrimidin-4-yl)-N,O-dimethyl-hydroxylamine], under “1 mpk IV, 20% HPβCD, pH 4-6”, the “MV MPR” value amounted to 264 and the “MV ΔMV” value came to 163.
Consider `CCCNc1nc(NCCC)c2c(n1)NCC2` [CXLIX, 2,4-Bis-(n-propyl)amino-7H-pyrrolidino[2,3-d]pyrimidine], for which the “MV MPR” value (1 mpk IV, 20% HPβCD, pH 4) was 175; the “MV MPR” value (1 mpk IV, 20% HPβCD, pH 6) is 263; the “MV MPR” value under setting [1] is 175; the “MV MPR” value under setting [2] is recorded as 263. Further, the “MV ΔMV” value (1 mpk IV, 20% HPβCD, pH 4) was determined as 93 and the “MV ΔMV” value (1 mpk IV, 20% HPβCD, pH 6) amounted to 167. Moreover, the “MV DMV” value is listed as 93 under setting [1] and 167 under setting [2].
As for `CON(C)c1nc2nc(n1)NCCOCCOCCOCCN2` [CXVII, N-(5,8,11-Trioxa-2,14,16,18,19-pentaazabicyclo[13.3.1]nonadeca-1(18),15 (19),16(17)-trien-17-yl)-N,O-dimethylhydroxylamine], under setting [3], the “MV DMV” value worked out at 15 and the “MV MPR” value amounted to 143.8.
For `CON(C)c1nc(NCC2CCOCC2)nc(NCC2CCOCC2)n1` [CXV], under “Table 8, 1 mpk, 15/65/20, pH 4”, the “MV DMV” value is reported as 33.8 and the “MV MPR” value was 155.7.
Consider `CCCNc1nc(NC(C)C)c2c(n1)N(C)CC2` [CXXVI], for which, under “1 mpk IV, 20% HPβCD, pH 5”, the “MV MPR” value amounted to 327 and the “MV ΔMV” value is given as 224.
Consider `CCCNc1nc(NC)c2c(n1)N(C)CC2` [CXXXI, 2-(n-Propyl)amino-4-methylamino-7-methyl-pyrrolidino[2,3-d]pyrimidine], for which, for the setting “1 mpk IV, 20% HPβCD, pH 4”, the “MV MPR” value was determined as 204 and the “MV ΔMV” value is given as 130.
On the same counts, the results for `CCCNc1nc(NC(C)C)c2c(n1)N(C(C)C)CC2` [CXXXVI, 2-(n-Propyl)amino-4-(i-propyl)amino-7-i-propyl-pyrrolidino[2,3-d]pyrimidine] are 238 and 143.
In the case of `CCCNc1cc(N(C)OC)nc(NCCC)n1` [CXX], for the setting “1 mpk IV, 20% HPβCD, pH 4-6”, the “MV MPR” value stood at 355 and the “MV ΔMV” value turned out to be 243. Also, under setting [3], the “MV DMV” value came out at 243 and the “MV MPR” value stood at 355.
As to `CCCNc1nc(NCCC)nc(N(C)OCc2ccccc2)n1` [LIII, O-Benzyl-N-(4,6-bis-n-propylamino-[1,3,5]triazin-2-yl)-N-methyl-hydroxylamine], for the setting “1 mpk IV, 20% HPβCD, pH 4-6”, the “MV MPR” value is 288 and the “MV ΔMV” value turned out to be 179.
With `CCCNc1nc(NCCC)nc(N(C)OC(C)C)n1` [LXIV, N-(4,6-Bis-n-propylamino-[1,3,5]triazin-2-yl)-O-isopropyl-N-methyl-hydroxylamine], under setting [4], the “MV MPR” value is 271 and the “MV ΔMV” value was 209.
Take `CCCNc1nc(NCCC)nc(N(OCc2ccccc2)C(C)C)n1` [LXXII, 6-((Benzyloxy)(isopropyl)amino)-N^2,N^4-dipropyl-1,3,5-triazine-2,4-diamine]: under setting [1], the “MV DMV” value came to 82 and the “MV MPR” value is 176.
For `CCCNc1nc(NCCC)nc(N(CC)OC(C)C)n1` [LXXVI, N-(4,6-Bis-n-propylamino-[1,3,5]triazin-2-yl)-N-ethyl-O-isopropyl-hydroxylamine], where the note is “1 mpk IV, 20% HPβCD, pH 4”, the “MV MPR” value stood at 308 and the “MV ΔMV” value turned out to be 191. Under setting [1], the “MV DMV” value came out at 191 and the “MV MPR” value is on record as 308.
Regarding `CCCNc1nc(NCCC)nc(N(C)OCC(C)C)n1` [LXXXII, N-(4,6-Bis-n-propylamino-[1,3,5]triazin-2-yl)-O-isobutyl-N-methyl-hydroxylamine], under “1 mpk IV, 20% HPβCD, pH 4”, the “MV MPR” value was determined as 248 and the “MV ΔMV” value was 133. Besides, under setting [1], the “MV DMV” value was 133 and the “MV MPR” value amounted to 248.
Take `CCCNc1nc(NCCC)nc(N(C)OCc2cccs2)n1` [LXXXIV, 6-(Methyl(thiophen-2-ylmethoxy)amino)-N^2,N^4-di-n-propyl-1,3,5-triazine-2,4-diamine]: where the note is “1 mpk IV, 20% HPβCD, pH 4”, the “MV MPR” value is reported as 213 and the “MV ΔMV” value worked out at 110. In addition, under setting [1], the “MV DMV” value is recorded as 110 and the “MV MPR” value was 213.
Turning to `CCCNc1nc(NCC)nc(NOC)n1` [N^2-ethyl-6-(methoxyamino)-N^4-n-propyl-1,3,5-triazine-2,4-diamine], where the note is “1 mpk IV, 20% HPβCD, pH 4-6”, the “MV MPR” value is listed as 208 and the “MV ΔMV” value turned out to be 117.
Turning to `CCCNc1nc(NC(C)C)c2ccn(C(C)C)c2n1` [N^4,7-diisopropyl-N^2-n-propyl-7H-pyrrolo[2,3-d]pyrimidine-2,4-diamine], for the setting “1 mpk IV, 20% HPβCD, pH 6”, the “MV MPR” value was determined as 250 and the “MV ΔMV” value is reported as 155.
Regarding `CCCNc1nc(NC(C)C)c2ccn(C)c2n1` [N^4-isopropyl-7-methyl-N^2-n-propyl-7H-pyrrolo[2,3-d]pyrimidine-2,4-diamine], for the setting “1 mpk IV, 20% HPβCD, pH 5”, the “MV MPR” value is on record as 402 and the “MV ΔMV” value was 320.
In the case of `CCCNc1nc(NC(C)C)c2cc[nH]c2n1` [N^4-isopropyl-N^2-n-propyl-7H-pyrrolo[2,3-d]pyrimidine-2,4-diamine], under “1 mpk IV, 20% HPβCD, pH 4”, the “MV MPR” value is 259 and the “MV ΔMV” value came out at 172.
